This assay addresses T1, human P2X7 (Homo sapiens, UniProt Q99572).
T1 construct: 1321N1 cells stably expressing the full length human P2X7 gene (1321N1-hP2X7)
T1 sequence (Q99572 1-595): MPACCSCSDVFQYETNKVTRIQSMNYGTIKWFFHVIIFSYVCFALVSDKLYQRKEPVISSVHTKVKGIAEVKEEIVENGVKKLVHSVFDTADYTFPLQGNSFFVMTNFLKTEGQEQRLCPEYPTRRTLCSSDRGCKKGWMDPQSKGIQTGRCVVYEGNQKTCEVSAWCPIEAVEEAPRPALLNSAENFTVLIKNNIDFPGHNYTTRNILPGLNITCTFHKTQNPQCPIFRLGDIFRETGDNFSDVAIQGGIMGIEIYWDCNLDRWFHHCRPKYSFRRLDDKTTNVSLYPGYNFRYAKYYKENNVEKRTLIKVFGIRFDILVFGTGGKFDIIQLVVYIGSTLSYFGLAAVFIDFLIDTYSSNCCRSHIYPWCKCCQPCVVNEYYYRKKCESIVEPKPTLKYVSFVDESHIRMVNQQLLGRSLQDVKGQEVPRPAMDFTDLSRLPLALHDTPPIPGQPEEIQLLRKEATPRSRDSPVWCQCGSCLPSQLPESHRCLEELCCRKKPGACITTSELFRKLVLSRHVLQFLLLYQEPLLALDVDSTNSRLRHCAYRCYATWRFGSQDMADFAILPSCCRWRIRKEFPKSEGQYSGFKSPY
As to the kind of experiment: Intracellular Calcium Flux (FLIPR) Assay. It is filed as cell-based. Particulars: 1321N1 cells stably expressing full length human P2X7; agonist 100 μM BzATP; fluo-3 calcium flux; read-out: FLIPR pIC50 hP2X7-1321n1 (converted). On the procedure: Stock solutions of compounds were prepared from powders as a 10 mM DMSO stock solution. These solutions were stored at RT during the two week period of these experiments to prevent freeze-thaw of the DMSO stocks. The DMSO stocks were added to the appropriate assay buffer at a concentration of 10 μM, and then diluted serially to the final concentrations that were tested. No observable precipitate was formed at any time during this process. The aqueous solutions of compounds as well as ATP (Sigma A7699) and BzATP (Sigma B6396) were prepared fresh for each day of experiment.
1321N1 cells stably expressing the full length human P2X7 gene (1321N1-hP2X7) and HEK293 cells stably expressing the full length rat P2X7 gene (HEK293-rP2X7) were obtained from the Roche Cell Culture Facility. 1321N1-hP2X7 cells were grown in Dulbecco's Modified Eagle's Medium (DMEM) high glucose supplemented with 10% FBS and 250 μg/mL G418. HEK293-rP2X7 cells were grown in DMEM/F-12 supplemented with 10% FBS, 1 mM CaCl2, 2 mM MgCl2, 2 mM L-Glutamine and 500 μg/ml G418. Cells were split such that they never became >70% confluent.
On the day prior to the experiment, 1321N1-hP2X7 or HEK293-rP2X7 cells were released into suspension with calcium-free PBS+Versene and washed by centrifugation with calcium-free PBS to remove the Versene. Cells were resuspended in growth medium at a density of 2.5×10^5 cells/mL and seeded into black walled, clear bottom 96 well plates (50,000 cells/well) approximately 18 hr prior to intracellular calcium flux experiments.
On the day of the experiment, plates were washed with FLIPR buffer (calcium- and magnesium-free Hank's Balanced Salt Solution (HBSS) supplemented with 10 mM Hepes, 2.5 mM probenecid and 2 mM calcium chloride) using a BIO-TEK 96 channel plate washer and incubated with […] fluo-3 dye at 37° C. for one hr. The dye was then removed by plate washing and the cells were allowed to equilibrate for 20 min at room temperature with antagonist or vehicle (FLIPR buffer). Agonist (100 μM BzATP final concentration for hP2X7; 5 μM BzATP final concentration or rP2X7) was added online with the FLIPR and fluorescence measurements made at 1 sec intervals for 60 sec followed by 3 sec intervals for a further 4 min (5 min total). A final addition of 5 μM ionomycin was made and the maximal BzATP-evoked fluorescence normalized to the maximal ionomycin-evoked fluorescence.
For orientation: Calcium assays in cells follow changes in intracellular calcium, usually with a dye or a luminescent sensor.

Data on 26 compounds can be found in patent publication US20120149718A1, “Amido Compounds” (priority 2010, published 2012).

For the compound `Cc1ccccc1C[C@H](C(=O)Nc1nc2ccccc2o1)c1ccc(S(C)(=O)=O)cc1` [Compound I-10, (S)—N-Benzooxazol-2-yl-2-(4-methanesulfonyl-phenyl)-3-o-tolyl-propionamide], the IC50 was 427 nM. For the compound `Cc1ccccc1C[C@@H](C(=O)Nc1nc2ccccc2o1)c1ccc(S(C)(=O)=O)cc1` [Compound I-11, (R)—N-Benzooxazol-2-yl-2-(4-methanesulfonyl-phenyl)-3-o-tolyl-propionamide], the IC50 was 81.3 nM. Under `CS(=O)(=O)c1ccc(C(Cc2ccc(F)cc2)C(=O)Nc2cnc(Br)cn2)cc1` (centres unmarked) [Compound I-13, N-(5-Bromo-pyrazin-2-yl)-3-(4-fluoro-phenyl)-2-(4-methanesulfonyl-phenyl)-propionamide] stands 813 nM; under `CS(=O)(=O)c1ccc(C(Cc2ccc(F)cc2)C(=O)Nc2cnc(CO)cn2)cc1` (centres unmarked) [Compound I-16, 3-(4-Fluoro-phenyl)-N-(5-hydroxymethyl-pyrazin-2-yl)-2-(4-methanesulfonyl-phenyl)-propionamide], 117 nM. Turning to `CC(C)(O)c1cnc(NC(=O)C(Cc2ccc(F)cc2)c2ccc(S(C)(=O)=O)cc2)cn1` (centres unmarked) [Compound I-17, 3-(4-Fluoro-phenyl)-N-[5-(1-hydroxy-1-methyl-ethyl)-pyrazin-2-yl]-2-(4-methanesulfonyl-phenyl)-propionamide], the IC50 is 1070 nM. Regarding `COCCN(C)Cc1cnc(NC(=O)C(Cc2ccc(F)cc2)c2ccc(S(C)(=O)=O)cc2)cn1` (centres unmarked) [Compound I-23, 3-(4-Fluoro-phenyl)-2-(4-methanesulfonyl-phenyl)-N-(5-{[(2-methoxy-ethyl)-methyl-amino]-methyl}-pyrazin-2-yl)-propionamide], the IC50 is 646 nM.

On to `CN(Cc1ccccc1)Cc1cnc(NC(=O)C(Cc2ccc(F)cc2)c2ccc(S(C)(=O)=O)cc2)cn1` (centres unmarked) [Compound I-24, N-{5-[(Benzyl-methyl-amino)-methyl]-pyrazin-2-yl}-3-(4-fluoro-phenyl)-2-(4-methanesulfonyl-phenyl)-propionamide], for which the IC50 was 1050 nM. Under `Cc1cc(S(C)(=O)=O)ccc1C(Cc1ccc(F)cc1)C(=O)Nc1nc2ccccc2o1` (centres unmarked) [Compound I-27, N-Benzooxazol-2-yl-3-(4-fluoro-phenyl)-2-(4-methanesulfonyl-2-methyl-phenyl)-propionamide] stands 204 nM; under `O=C(Nc1nc2ccccc2o1)C(Cc1ccc(F)cc1)c1ccc(F)cc1` (centres unmarked) [Compound I-28, N-Benzooxazol-2-yl-2,3-bis-(4-fluoro-phenyl)-propionamide], 437 nM; under `Cc1cccc2oc(NC(=O)C(Cc3ccc(F)cc3)c3ccc(S(C)(=O)=O)cc3)nc12` (centres unmarked) [Compound I-35, 3-(4-Fluoro-phenyl)-2-(4-methanesulfonyl-phenyl)-N-(4-methyl-benzooxazol-2-yl)-propionamide], 468 nM. For `Cc1ccc2nc(NC(=O)C(Cc3ccc(F)cc3)c3ccc(S(C)(=O)=O)cc3)oc2c1` (centres unmarked) [Compound I-36, 3-(4-Fluoro-phenyl)-2-(4-methanesulfonyl-phenyl)-N-(6-methyl-benzooxazol-2-yl)-propionamide], the IC50 is 191 nM. Take `Cc1ccc2oc(NC(=O)C(Cc3ccc(F)cc3)c3ccc(S(C)(=O)=O)cc3)nc2c1` (centres unmarked) [Compound I-37, 3-(4-Fluoro-phenyl)-2-(4-methanesulfonyl-phenyl)-N-(5-methyl-benzooxazol-2-yl)-propionamide]: the IC50 was 166 nM. In the case of `CS(=O)(=O)c1ccc(C(Cc2ccc(F)cc2)C(=O)Nc2nc3ccc(Cl)cc3o2)cc1` (centres unmarked) [Compound I-38, N-(6-Chloro-benzooxazol-2-yl)-3-(4-fluoro-phenyl)-2-(4-methanesulfonyl-phenyl)-propionamide], the IC50 is 316 nM. As for `CS(=O)(=O)c1ccc(C(Cc2ccc(F)cc2)C(=O)Nc2nc3cc(Cl)ccc3o2)cc1` (centres unmarked) [Compound I-39, N-(5-Chloro-benzooxazol-2-yl)-3-(4-fluoro-phenyl)-2-(4-methanesulfonyl-phenyl)-propionamide], the IC50 was 126 nM.

On to `CS(=O)(=O)c1ccc(C(Cc2ccc(F)cc2)C(=O)Nc2nc3ccc(F)cc3o2)cc1` (centres unmarked) [Compound I-40, N-(6-Fluoro-benzooxazol-2-yl)-3-(4-fluoro-phenyl)-2-(4-methanesulfonyl-phenyl)-propionamide], for which the IC50 was 38.9 nM. The value for `CS(=O)(=O)c1ccc(C(Cc2ccc(F)cc2)C(=O)Nc2nc3cc(C(F)(F)F)ccc3o2)cc1` (centres unmarked) [Compound I-41, 3-(4-Fluoro-phenyl)-2-(4-methanesulfonyl-phenyl)-N-(5-trifluoromethyl-benzooxazol-2-yl)-propionamide] was 115 nM; that for `Cc1cccc2nc(NC(=O)C(Cc3ccc(F)cc3)c3ccc(S(C)(=O)=O)cc3)oc12` (centres unmarked) [Compound I-42, 3-(4-Fluoro-phenyl)-2-(4-methanesulfonyl-phenyl)-N-(7-methyl-benzooxazol-2-yl)-propionamide] was 28.8 nM. For `Cc1cc(C)c2oc(NC(=O)C(Cc3ccc(F)cc3)c3ccc(S(C)(=O)=O)cc3)nc2c1` (centres unmarked) [Compound I-43, N-(5,7-Dimethyl-benzooxazol-2-yl)-3-(4-fluoro-phenyl)-2-(4-methanesulfonyl-phenyl)-propionamide], the IC50 is 102 nM. As to `COc1ccc2oc(NC(=O)C(Cc3ccc(F)cc3)c3ccc(S(C)(=O)=O)cc3)nc2c1` (centres unmarked) [Compound I-44, 3-(4-Fluoro-phenyl)-2-(4-methanesulfonyl-phenyl)-N-(5-methoxy-benzooxazol-2-yl)-propionamide], the IC50 was 75.9 nM. As to `COC(=O)c1ccc2nc(NC(=O)C(Cc3ccc(F)cc3)c3ccc(S(C)(=O)=O)cc3)oc2c1` (centres unmarked) [Compound I-45, 2-[3-(4-Fluoro-phenyl)-2-(4-methanesulfonyl-phenyl)-propionylamino]-benzooxazole-6-carboxylic acid methyl ester], the IC50 is 617 nM. `CS(=O)(=O)c1ccc(C(Cc2ccc(F)cc2)C(=O)Nc2nc3cc(F)ccc3o2)cc1` (centres unmarked) [Compound I-46, N-(5-Fluoro-benzooxazol-2-yl)-3-(4-fluoro-phenyl)-2-(4-methanesulfonyl-phenyl)-propionamide]: the IC50 is 44.7 nM. `CS(=O)(=O)c1ccc(C(Cc2ccc(F)cc2)C(=O)Nc2nc3cc(S(=O)(=O)N4CCCC4)ccc3o2)cc1` (centres unmarked) [Compound I-47, 3-(4-Fluoro-phenyl)-2-(4-methanesulfonyl-phenyl)-N-[5-(pyrrolidine-1-sulfonyl)-benzooxazol-2-yl]-propionamide]: the IC50 was 170 nM. On to `CS(=O)(=O)c1ccc(C(Cc2ccc(F)cc2)C(=O)Nc2ncc(-c3ccccc3)o2)cc1` (centres unmarked) [Compound I-48, 3-(4-Fluoro-phenyl)-2-(4-methanesulfonyl-phenyl)-N-(5-phenyl-oxazol-2-yl)-propionamide], for which the IC50 was 295 nM. Turning to `CC(=O)OCc1cnc(NC(=O)C(Cc2ccc(F)cc2)c2ccc(S(C)(=O)=O)cc2)cn1` (centres unmarked) [Compound I-49, Acetic acid 5-[3-(4-fluoro-phenyl)-2-(4-methanesulfonyl-phenyl)-propionylamino]-pyrazin-2-ylmethyl ester], the IC50 is 871 nM. Regarding `CS(=O)(=O)c1ccc([C@@H](Cc2ccc(F)cc2)C(=O)Nc2cnc(CO)cn2)cc1` [Compound I-50a, (R)-3-(4-Fluoro-phenyl)-N-(5-hydroxymethyl-pyrazin-2-yl)-2-(4-methanesulfonyl-phenyl)-propionamide], the IC50 was 380 nM. In the case of `CS(=O)(=O)c1ccc([C@H](Cc2ccc(F)cc2)C(=O)Nc2cnc(CO)cn2)cc1` [Compound I-50b, (S)-3-(4-Fluoro-phenyl)-N-(5-hydroxymethyl-pyrazin-2-yl)-2-(4-methanesulfonyl-phenyl)-propionamide], the IC50 is over 10000 nM.
